Source: patent US4851436A, “HMG-CoA reductase inhibitors” (Merck & Co., Inc., priority 1987, dated 1989)

How the values were obtained:
HMG-CoA reductase = assay: In vitro determination of HMG-CoA reductase inhibitory activity; assay type: biochemical, rat; details: for Relative Potency: Relative to compactin arbitrarily assigned a value of 100; for IC50: purified rat liver microsomal HMG-CoA reductase, 37° C., 40 minutes, pH 7.2
Method: The intrinsic HMG-CoA reductase inhibition activity of the claimed compounds is measured in the in vitro protocol described below:
The In Vitro Determination of HMG-CoA Reductase Activity in Liver and the In Vitro Testing of Inhibitors
The procedure to measure in vitro HMG-CoA reductase activity in rat liver involves two steps and is based upon the procedure of Alberts et al:^1
1. Preparation of liver microsomal pellets.
2. Assay of the pellet for HMG-CoA reductase activity.
Reference: 1. Alberts, et al., Proceedings of the National Academy of Science, Vol. 77, pp. 3957-61 (1980).
Microsomes are prepared from livers of 150-200 g male rats (Charles River) maintained for a week on ground chow containing 2.0% cholestyramine, a bile acid sequestrant. The rats are sacrificed by cervical dislocation, and the livers removed immediately and chilled on ice. All subsequent operation are carried out at 0°-5° C.
Buffer I (for homogenization)
Procedure: all operation at 4° C.
Purification of HMG-CoA Reductase from Microsomal Pellet
Procedure: all operations are carried out at room temperature
The complete assay system is in a total volume of 0.8 ml in phosphate buffer at pH 7.2 (100 mM) with the cofactors at the following concentrations: MgCl2 3 mM; NADP, 3 mM; glucose-6-phosphate, 10 mM; glucose-6-phosphate dehydrogenase (ED 1.1.1.49) 3.0 enzyme units; reduced glutathione, 50 mM; HMG-CoA (Glutaryl-3-^14 C) 0.2 mM (0.1 μCi) and enzyme suspension, 0.1 ml.
The frozen pellet (enzyme) is allowed to thaw at room temperature for 5 minutes and carefully mixed with a stirring rod to a slurry with 0.1 ml of phosphate buffer (pH 7.2) and then diluted to 2.0 ml with the buffer. A volume (0.1 ml) of enzyme suspension is added to each incubation tube. Compounds to be tested are diluted to an appropriate concentration and added in a volume to 10 μ before adding the enzyme. An "untreated-control" is run along with the compounds.
The complete system is placed in 16×125 mm screw-cap culture tubes and shaken uncapped in a 37° C. water bath for 40 minutes at 160 oscillations per minute. At the end of this period the reaction is stopped by the addition of 0.4 ml of 8N HCl. 3 Mg of unlabeled mevalonolactone in 0.1 ml H2 O is added and the tubes shaken as before for an additional 30 minutes at 37° C. to ensure lactonization of the biosynthetic mevalonate.
200 μl of reaction mixture are applied to Bio-Rex 5 column (5 cm in a Pasteur pipette). Elute three times with one ml each of water into a scintillation vial. Add 10 ml of Aquasol-2, shake and count.
Bio-Rex is an ion-exchange resin, obtained from Bio-Rad. It comes dry in the chloride form and only the 100-200 mesh should be used. It is swelled in water for several hours; any fine particles should be decanted off as these will impair the flow rate. The hydrated resin should be stored at 4° C.
Each assay includes 2 untreated controls plus a "killed control" (reaction is stopped immediately before incubation by addition of 0.4 ml of 8N HCl).
After subtracting killed control CPM from all samples, percent inhibition by the test compounds is calculated as follows: [formula]

[1] = Stability of the free hydroxy acid on standing; assay type: physicochemical
Method: The sodium salt of the compound II from Example 17 is redissolved in 2 ml of ethanol-water (1:1) and added to 10 ml of 1N hydrochloric acid from which the hydroxy acid is extracted with ethyl acetate. The latter solvent is washed once with water, dried, and removed in vacuo with a bath temperature not exceeding 30° C.

Row | Relative Potency (HMG-CoA reductase) | IC50 (HMG-CoA reductase) | SMILES | reversion of hydroxy acid to lactone [1]
1 | 63 | 30 nM | C[C@H]1C=C2C=C[C@H](C)[C@H](CC[C@@H](O)C[C@@H](O)CC(=O)O)[C@H]2[C@@H](OC(=O)C(C)(C)CCCO)C1 [n=3, R=H, R1=CH3, R2=CH3, R3=H] | –
2 | 30 | 40 nM | CC(CCO)C(=O)O[C@H]1C[C@@H](C)C=C2C=C[C@H](C)[C@H](CC[C@@H](O)C[C@@H](O)CC(=O)O)[C@H]21 (stereo partly drawn) [n=2, R=H, R1=H, R2=CH3, R3=H] | –
3 | 64 | 15.6 nM | CC1C=C2C=CC(C)C(CCC(O)CC(O)CC(=O)O)C2C(OC(=O)C(C)(C)CCO)C1 [n=2, R=H, R1=CH3, R2=CH3, R3=H, 7-[1,2,6,7,8,8a(R)-Hexahydro-2(S),6(R)-dimethyl-8(S)-(2,2-dimethyl-4-hydroxybutyryloxy)naphthalenyl-1(S)]-3(R),5(R)-dihydroxyheptanoic acid] | slowly reverts to the lactone on standing
4 | 80 | 20 nM | C[C@H]1C=C2C=C[C@H](C)[C@H](CC[C@@H](O)C[C@@H](O)CC(=O)O)[C@H]2[C@@H](OC(=O)C(C)(C)CO)C1 [n=1, R=H, R1=CH3, R2=CH3, R3=H] | –
